Experimental data: US7365067B2, “Indanol derivative” (Sankyo Company, Limited, priority 2004, dated 2008)

target: T1, NK2 receptor (Cavia porcellus, UniProt Q64077); assay: Inhibitory Action on Airway Contraction (In Vivo, Transtracheal Administration), induced by neurokinin A (NKA); set-up: species or system guinea pig; settings: Hartley male guinea pigs; 10 μg/kg transtracheal; NKA 4 μg/kg i.v. administered 16 hours after test substance; relative to 5% glucose control group
T1 construct: in normal guinea pigs (body weights: about 500 g, Hartley male guinea pigs); from tissue; host or cells: airways of live Hartley male guinea pigs (in vivo)
T1 sequence (Q64077 1-402): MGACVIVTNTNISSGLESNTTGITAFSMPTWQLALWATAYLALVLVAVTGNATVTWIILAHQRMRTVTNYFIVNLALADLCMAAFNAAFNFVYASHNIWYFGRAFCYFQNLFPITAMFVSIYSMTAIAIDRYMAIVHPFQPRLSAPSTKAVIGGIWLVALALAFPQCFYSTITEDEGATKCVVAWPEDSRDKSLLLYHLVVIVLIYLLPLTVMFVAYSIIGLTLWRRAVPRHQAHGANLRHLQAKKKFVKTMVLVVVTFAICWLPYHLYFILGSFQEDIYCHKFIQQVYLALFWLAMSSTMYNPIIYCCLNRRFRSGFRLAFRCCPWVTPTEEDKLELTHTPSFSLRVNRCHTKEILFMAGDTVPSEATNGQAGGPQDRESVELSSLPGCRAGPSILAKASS
Excerpt: Inhibitory Action on Airway Contraction (In Vivo, Transtracheal Administration)
The inhibitory action on airway contraction by the NK2 receptor agonist, neurokinin A (NKA) was investigated using airway internal pressure as an indicator in normal guinea pigs (body weights: about 500 g, Hartley male guinea pigs) using a variation of the method of Konzett-Roessler (Naunyn-Schmiedebergs Arch. Exp. Pathol. Pharmakol. 195, 71 (1940)).
A tracheal cannula and venous cannula were implanted in the guinea pigs under pentobarbital anesthesia (50 mg/mL of liquid, 0.40 to 0.50 mL/body, s.c.). In addition, an arterial cannula filled with heparin-containing physiological saline (100 U/mL) was implanted to monitor blood pressure and heart rate via an amplifier and instantaneous cardiograph. Next, after administering gallamine (20 mg/kg, i.v.) and interrupting spontaneous respiration, positive pressure ventilation (Ugo-Basile Biological Research Apparatus, Cat. No. 7025) was rapidly carried out at 10 mL/kg and 60 times/minute. The airway internal pressure during artificial respiration was detected with a pressure transducer (Nihon Koden, TP-200T or TP-400T) implanted in the lateral branch of the tracheal cannula, amplified (Nihon Koden, AP-601G) and recorded with a recorder (Nihon Koden, WT-645G or WT-685G). After the airway internal pressure, blood pressure and heart rate had stabilized, the standard tracheal contracting substance, methacholine was administered at 10 μg/kg (100 μg/mL, 0.10 mL/kg) to confirm airway response. In the case the prescribed contraction response was not obtained, methacholine was additionally administered at 12 μg/kg (120 μg/mL, 0.10 mL/kg) followed by confirmation of airway response. Five minutes after confirming airway response, NKA was administered intravenously through the intravenous cannula at 4 μg/kg to induce airway contraction followed by measuring airway internal pressure for the next 10 minutes.
The test substance was dissolved in 5% glucose, and a 0.5 mL/kg solution was administered into the airway using an intratracheal administration instrument (1A-1B, Penn-Century).
The surface value over which airway internal pressure had increased at 10 minutes after administration of NKA was taken to represent the strength of NKA-induced airway contraction, and the inhibition rate was calculated relative to a control group (5% glucose transtracheal dose group).

First: Cl.Cl.O=C(CN1CCOCC1)O[C@H]1Cc2ccccc2C12CCN(CC[C@@]1(c3ccc(Cl)c(Cl)c3)CN(C(=O)c3cc(C(F)(F)F)cc(C(F)(F)F)c3)CCO1)CC2 [Example 6, 1-(2-{(2R)-2-(3,4-Dichlorophenyl)-4-[3,5-bis(trifluoromethyl)benzoyl]morpholin-2-yl}ethyl)spiro((2S)-2-{[(morpholin-1-yl)acetyl]oxy})indane-1,4′-piperidine dihydrochloride]
Second: Cl.O=C(CO[C@H]1Cc2ccccc2C12CCN(CC[C@@]1(c3ccc(Cl)c(Cl)c3)CN(C(=O)c3cc(C(F)(F)F)cc(C(F)(F)F)c3)CCO1)CC2)N1CCC(CCO)CC1 [Example 69, 2-(1-{[((2S)-1′-{2-[(2R)-4-[3,5-bis(Trifluoromethyl)benzoyl]-2-(3,4-dichlorophenyl)morpholin-2-yl]ethyl}-2,3-dihydrospiro[indene-1,4′-piperidin]-2-yl)oxy]acetyl}piperidin-4-yl)ethanol hydrochloride]
The “Inhibition Rate (%) of NKA-induced airway contraction” value (“Inhibition Rate (%)” for short) of the first is higher: 97% for the first, 88% for the second.

Compared with `Cl.Cl.O=C(CO[C@H]1Cc2ccccc2C12CCN(CC[C@@]1(c3ccc(Cl)c(Cl)c3)CN(C(=O)c3cc(C(F)(F)F)cc(C(F)(F)F)c3)CCO1)CC2)N(CCO)CCO` [Example 31, 1-(2-{(2R)-2-(3,4-Dichlorophenyl)-4-[3,5-bis(trifluoromethyl)benzoyl]morpholin-2-yl}ethyl)spiro((2S)-2-{2-[bis(2-hydroxyethyl)amino]-2-oxoethoxy})indane-1,4′-piperidine dihydrochloride], `CN(CCO)C(=O)CO[C@H]1Cc2ccccc2C12CCN(CC[C@@]1(c3ccc(Cl)c(Cl)c3)CN(C(=O)c3cc(C(F)(F)F)cc(C(F)(F)F)c3)CCO1)CC2.Cl` [Example 32, 1-(2-{(2R)-2-(3,4-Dichlorophenyl)-4-[3,5-bis(trifluoromethyl)benzoyl]morpholin-2-yl}ethyl)spiro((2S)-2-{[N-(2-hydroxyethyl)-N-methylamino]-2-oxoethoxy})indane-1,4′-piperidine hydrochloride] is higher in “Inhibition Rate (%)” value: 82% for the first, 89% for the second.

First: Cl.O=C(CO[C@H]1Cc2ccccc2C12CCN(CC[C@@]1(c3ccc(Cl)c(Cl)c3)CN(C(=O)c3cc(C(F)(F)F)cc(C(F)(F)F)c3)CCO1)CC2)NCCO [Example 33, 1-(2-{(2R)-2-(3,4-Dichlorophenyl)-4-[3,5-bis(trifluoromethyl)benzoyl]morpholin-2-yl}ethyl)spiro((2S)-2-{2-[N-(2-hydroxyethyl)amino]-2-oxoethoxy})indane-1,4′-piperidine hydrochloride]
Second: CN(CCCO)C(=O)CO[C@H]1Cc2ccccc2C12CCN(CC[C@@]1(c3ccc(Cl)c(Cl)c3)CN(C(=O)c3cc(C(F)(F)F)cc(C(F)(F)F)c3)CCO1)CC2.Cl [Example 64, 2-[((2S)-1′-{2-[(2R)-4-[3,5-bis(Trifluoromethyl)benzoyl]-2-(3,4-dichlorophenyl)morpholin-2-yl]ethyl}-2,3-dihydrospiro[indene-1,4′-piperidin]-2-yl)oxy]-N-(3-hydroxypropyl)-N-methylacetamide hydrochloride]
The “Inhibition Rate (%)” value of the first is higher: 93% for the first, 87% for the second.

In the case of `CN(CCCCO)C(=O)CO[C@H]1Cc2ccccc2C12CCN(CC[C@@]1(c3ccc(Cl)c(Cl)c3)CN(C(=O)c3cc(C(F)(F)F)cc(C(F)(F)F)c3)CCO1)CC2.Cl` [Example 58, 2-[((2S)-1′-{2-[(2R)-4-[3,5-bis(Trifluoromethyl)benzoyl]-2-(3,4-dichlorophenyl)morpholin-2-yl]ethyl}-2,3-dihydrospiro[indene-1,4′-piperidin]-2-yl)oxy]-N-(4-hydroxybutyl)-N-methylacetamide hydrochloride], the “Inhibition Rate (%)” value is reported as 90%.
